Consider 12 compounds from patent publication US4868181A, “1,4-dihydropyridine derivatives with calcium agonist and alpha1 -antagonist activity” (E. I. Du Pont de Nemours and Company, priority 1987, dated 1989).

SMILES strings stand for the structures.

The target in one experiment is alpha1 -adrenoceptors. In words: [^3 H]-prazosin binding assay (affinity for alpha1-adrenoceptors). The following applies: rat brain membranes, 0.2 nM [^3 H]-prazosin, 60 minutes at 25°. The procedure:
The [^3 H]-prazosin binding assay was carried out according to the method described by Timmermans, P. B. M. W. M., Schoop, A. M. C., and Van Zwieten, P. A.: Biochem Pharmacol., 31, 899-905, 1982 (1). The reaction mixture contained partially purified rat brain membranes (source of alpha1 -adrenoceptors), 0.2 nM [^3 H]-prazosin with or without potential displacer in Tris buffer. The mixture was incubated for 60 minutes at 25° and subsequently terminated by rapid filtration through glass fiber-filter. Receptor-bound [^3 H]-prazosin trapped in the filter was quantitated by scintillation counting. The inhibitory concentration (IC50) of potential displacer which gives 50% displacement of the total specifically bound [^3 H]-prazosin is presented as a measure of the affinity of such compound for the alpha1 -adrenoceptor.

A further experiment concerns the target T1, Ca^2 + channels (Rattus norvegicus, UniProt P22002).
T1 construct: rat cardiac microsomes (source of Ca^2 + channels); from tissue; host or cells: rat cardiac microsomes
The experiment in a line: [^3 H]-Nitrendipine binding assay (affinity for calcium channels). Conditions: rat cardiac microsomes, 0.5 nM [^3 H]-nitrendipine, 60 minutes at 25°. The procedure: [^3 H]-Nitrendipine binding assay was carried out according to the method described by G. T. Bolger, et al., Biochem. Biophys. Res. Comm., 104, 1604-1609, 1982 (1). The reaction mixture contained rat cardiac microsomes (source of Ca^2 + channels), 0.5 nM [^3 H]-nitrendipinewith or without potential displacer in Tris buffer. The mixture was incubated for 60 minutes at 25° and subsequently terminated by rapid filtration through a glass fiber-filter. Membrane-bound [^3 H]-nitrendipine trapped in the filter was quantitated by scintillation counting. The inhibitory concentration (IC50) of potential displacer which gives 50% displacement of the total specifically bound [^3 H]-nitrendipine is presented as a measure of the affinity of such compound for the Ca^2 + channel.

The test system of the next experiment is guinea pig left atria. The experiment in a line: Positive inotropic effect in guinea pig left atria. Conditions: 37°; for EC50: left atria paced at 2Hz, cumulative addition to maximum 10^-4, read-out: EC50 (concentration that increases DT by 50% above the control DT); for Intrinsic Activity (ratio of the maximum effect of the test compound to that of Bay K 8644): relative to Bay K 8644, left atria paced at 2Hz. The protocol: Guinea pigs are killed by cervical dislocation. The left atria are removed and mounted at 1 gm resting tension in tissue baths containing oxygenated Krebs bicarbonate solution which is kept at 37°. The left atria are electrically paced at 2Hz with square wave pulses of 1 msec duration. The voltage is set at 1.5× threshold level.
After a one hour equilibration period, control values for developed tension (DT, gm) are recorded. Test compounds are then added to the baths, in a cumulative manner to a maximum concentration of 10^-4, to obtain a concentration-response curve. Treatment values of DT are obtained after the rug effect has reached a plateau and the exposure time for each concentration is 5-8 minutes. Percent change of the treatment value from the control value is calculated at each concentration of the test compound.

T1 sequence (P22002 whole entry, other chains not shown): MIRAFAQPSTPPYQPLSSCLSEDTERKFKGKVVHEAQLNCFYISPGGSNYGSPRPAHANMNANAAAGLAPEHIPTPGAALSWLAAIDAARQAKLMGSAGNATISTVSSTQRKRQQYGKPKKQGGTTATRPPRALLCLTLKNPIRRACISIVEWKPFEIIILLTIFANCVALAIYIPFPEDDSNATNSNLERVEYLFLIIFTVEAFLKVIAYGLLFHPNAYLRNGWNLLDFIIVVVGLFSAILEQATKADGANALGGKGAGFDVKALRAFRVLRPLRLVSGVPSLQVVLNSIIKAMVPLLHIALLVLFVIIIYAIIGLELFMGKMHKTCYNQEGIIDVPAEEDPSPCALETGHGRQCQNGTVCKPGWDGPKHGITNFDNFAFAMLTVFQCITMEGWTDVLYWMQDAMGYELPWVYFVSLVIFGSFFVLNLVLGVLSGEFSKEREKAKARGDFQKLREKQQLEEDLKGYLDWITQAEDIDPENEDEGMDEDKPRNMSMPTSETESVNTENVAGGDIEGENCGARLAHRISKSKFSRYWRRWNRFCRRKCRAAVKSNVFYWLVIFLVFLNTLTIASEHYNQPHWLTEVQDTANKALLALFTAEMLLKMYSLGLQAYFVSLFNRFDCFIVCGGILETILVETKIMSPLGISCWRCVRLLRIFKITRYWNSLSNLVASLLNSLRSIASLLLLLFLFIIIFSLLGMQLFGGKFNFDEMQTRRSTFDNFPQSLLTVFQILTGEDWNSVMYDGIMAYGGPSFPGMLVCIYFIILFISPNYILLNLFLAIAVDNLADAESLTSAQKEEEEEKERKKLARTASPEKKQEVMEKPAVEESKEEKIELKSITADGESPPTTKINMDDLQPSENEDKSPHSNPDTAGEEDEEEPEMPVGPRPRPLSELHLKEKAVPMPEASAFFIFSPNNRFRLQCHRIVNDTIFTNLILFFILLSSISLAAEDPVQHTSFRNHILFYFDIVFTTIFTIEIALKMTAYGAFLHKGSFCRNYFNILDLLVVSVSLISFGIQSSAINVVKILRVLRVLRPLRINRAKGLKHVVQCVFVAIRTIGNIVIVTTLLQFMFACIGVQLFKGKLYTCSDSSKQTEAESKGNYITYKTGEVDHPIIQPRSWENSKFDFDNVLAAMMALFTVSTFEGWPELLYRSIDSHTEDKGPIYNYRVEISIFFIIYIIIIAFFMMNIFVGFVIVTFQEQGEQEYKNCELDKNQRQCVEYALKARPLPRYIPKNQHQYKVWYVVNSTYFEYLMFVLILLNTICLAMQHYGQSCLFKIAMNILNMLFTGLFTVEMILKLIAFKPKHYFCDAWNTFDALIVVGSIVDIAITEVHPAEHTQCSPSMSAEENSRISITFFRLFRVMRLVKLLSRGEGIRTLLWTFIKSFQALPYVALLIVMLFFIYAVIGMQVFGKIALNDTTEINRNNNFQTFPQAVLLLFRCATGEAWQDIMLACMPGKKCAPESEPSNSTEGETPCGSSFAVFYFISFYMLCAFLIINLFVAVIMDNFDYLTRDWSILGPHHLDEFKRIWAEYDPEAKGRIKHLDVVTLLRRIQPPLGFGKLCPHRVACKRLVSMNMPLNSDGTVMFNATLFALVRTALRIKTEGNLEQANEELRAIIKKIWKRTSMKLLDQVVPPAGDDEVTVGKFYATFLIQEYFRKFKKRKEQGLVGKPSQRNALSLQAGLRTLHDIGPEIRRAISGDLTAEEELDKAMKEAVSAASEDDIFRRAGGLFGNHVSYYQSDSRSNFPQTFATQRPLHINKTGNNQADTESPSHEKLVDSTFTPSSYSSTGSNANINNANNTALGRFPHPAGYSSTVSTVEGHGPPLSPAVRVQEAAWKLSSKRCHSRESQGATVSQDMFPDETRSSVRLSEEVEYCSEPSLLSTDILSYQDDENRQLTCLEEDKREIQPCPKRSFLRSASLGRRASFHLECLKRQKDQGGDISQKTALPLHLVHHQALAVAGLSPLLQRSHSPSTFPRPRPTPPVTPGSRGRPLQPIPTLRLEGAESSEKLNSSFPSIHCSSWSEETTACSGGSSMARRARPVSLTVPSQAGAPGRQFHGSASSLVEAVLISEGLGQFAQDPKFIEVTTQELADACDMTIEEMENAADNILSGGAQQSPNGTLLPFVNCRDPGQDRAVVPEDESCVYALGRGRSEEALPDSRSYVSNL
T1 sequence (P54290 25-944 partner limits assumed, other chains not shown): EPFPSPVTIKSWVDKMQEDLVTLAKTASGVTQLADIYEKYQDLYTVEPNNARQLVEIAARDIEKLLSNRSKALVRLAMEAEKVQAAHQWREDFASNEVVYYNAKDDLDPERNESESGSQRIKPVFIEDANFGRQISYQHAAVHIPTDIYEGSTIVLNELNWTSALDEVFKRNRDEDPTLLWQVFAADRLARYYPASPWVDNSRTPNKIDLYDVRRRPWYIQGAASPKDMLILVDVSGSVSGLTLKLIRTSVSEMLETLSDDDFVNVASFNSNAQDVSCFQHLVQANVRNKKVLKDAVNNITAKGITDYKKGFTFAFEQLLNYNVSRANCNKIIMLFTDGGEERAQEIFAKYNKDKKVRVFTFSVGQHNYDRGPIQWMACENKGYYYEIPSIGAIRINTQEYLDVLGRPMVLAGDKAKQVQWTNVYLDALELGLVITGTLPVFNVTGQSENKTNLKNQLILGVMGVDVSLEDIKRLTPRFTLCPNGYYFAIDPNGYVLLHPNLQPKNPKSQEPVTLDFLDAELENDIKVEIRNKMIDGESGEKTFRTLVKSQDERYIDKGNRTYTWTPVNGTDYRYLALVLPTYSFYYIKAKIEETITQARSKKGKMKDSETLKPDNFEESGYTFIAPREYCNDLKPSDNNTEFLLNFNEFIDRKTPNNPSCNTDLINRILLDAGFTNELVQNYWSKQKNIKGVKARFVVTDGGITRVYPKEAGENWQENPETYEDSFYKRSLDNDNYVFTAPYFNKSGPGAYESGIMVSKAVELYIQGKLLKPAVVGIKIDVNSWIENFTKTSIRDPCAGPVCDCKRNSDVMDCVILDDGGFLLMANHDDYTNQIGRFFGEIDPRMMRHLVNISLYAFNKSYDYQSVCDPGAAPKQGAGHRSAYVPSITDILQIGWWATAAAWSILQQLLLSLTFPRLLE
T1 sequence (P54290 945-1091 partner limits assumed, other chains not shown): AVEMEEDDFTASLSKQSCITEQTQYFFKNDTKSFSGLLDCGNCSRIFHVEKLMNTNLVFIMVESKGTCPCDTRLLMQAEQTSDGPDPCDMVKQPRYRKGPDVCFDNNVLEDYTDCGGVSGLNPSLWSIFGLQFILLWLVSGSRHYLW

In general, IC50 refers to the midpoint of a concentration-inhibition curve. Turning to `COC(=O)C1=C(C)NC(C)=C([N+](=O)[O-])C1c1ccccc1OCCCN1CCN(c2ccccc2OC)CC1` (stereo not drawn) [Example 88], the IC50 on alpha1 -adrenoceptors turned out to be 260 nM. In addition, the half-maximal inhibitory concentration (IC50) at Ca^2 + channels was 4800 nM. In the experiment on guinea pig left atria, the EC50 was 2000 nM and the “Intrinsic Activity (ratio of the maximum effect of the test compound to that of Bay K 8644)” value came out at 50%.

`COC(=O)C1=C(C)NC(C)=C([N+](=O)[O-])C1c1cccc(OCCCN2CCN(c3ccccc3OC)CC2)c1` (stereo not drawn) [Example 89] returned an IC50 on alpha1 -adrenoceptors of 71 nM. Moreover, the IC50 at Ca^2 + channels is 4000 nM. Besides, in the experiment with guinea pig left atria, the EC50 was found to be 20000 nM and the “Intrinsic Activity (ratio of the maximum effect of the test compound to that of Bay K 8644)” value was 20%.

Consider `COC(=O)C1=C(C)NC(C)=C([N+](=O)[O-])C1c1ccccc1OCCCCN1CCN(c2ccccc2OC)CC1` (stereo not drawn) [Example 105], for which, at alpha1 -adrenoceptors, the IC50 was 180 nM. Further, the IC50 at Ca^2 + channels came to 220 nM. In the experiment with guinea pig left atria, the EC50 is 3000 nM and the “Intrinsic Activity (ratio of the maximum effect of the test compound to that of Bay K 8644)” value is on record as 20%.

`COC(=O)C1=C(C)NC(C)=C([N+](=O)[O-])C1c1cccc(OC)c1OCCCN1CCN(c2ccccc2OC)CC1` (stereo not drawn) [Example 106] showed an IC50 at alpha1 -adrenoceptors of 140 nM. For the same compound, the IC50 at Ca^2 + channels came to 250 nM. In the experiment with guinea pig left atria, the EC50 is more than 100000 nM and the “Intrinsic Activity (ratio of the maximum effect of the test compound to that of Bay K 8644)” value was 0%.

Take `COC(=O)C1=C(C)NC(C)=C([N+](=O)[O-])C1c1cccc(OCCCCN2CCN(c3ccccc3OC)CC2)c1` (stereo not drawn) [Example 107]: at alpha1 -adrenoceptors, the IC50 came out at 410 nM. Besides, the IC50 at Ca^2 + channels is 4100 nM. Moreover, in the experiment with guinea pig left atria, the EC50 is more than 100000 nM and the “Intrinsic Activity (ratio of the maximum effect of the test compound to that of Bay K 8644)” value is given as 0%.

As to `CCOc1cccc(C2C(C(=O)OC)=C(C)NC(C)=C2[N+](=O)[O-])c1OCCCN1CCN(c2ccccc2OC)CC1` (stereo not drawn) [Example 108], on alpha1 -adrenoceptors, the IC50 worked out at 1200 nM. For the same compound, the IC50 at Ca^2 + channels came out at 990 nM. For the same compound, in the experiment on guinea pig left atria, the EC50 was more than 100000 nM and the “Intrinsic Activity (ratio of the maximum effect of the test compound to that of Bay K 8644)” value worked out at 0%.

`CCOc1cccc(C2C(C(=O)OC)=C(C)NC(C)=C2[N+](=O)[O-])c1OCCCCN1CCN(c2ccccc2OC)CC1` (stereo not drawn) [Example 109] came in with an IC50 at alpha1 -adrenoceptors of 610 nM. Also, the IC50 on Ca^2 + channels was 790 nM. For the same compound, in the experiment with guinea pig left atria, the EC50 is more than 100000 nM and the “Intrinsic Activity (ratio of the maximum effect of the test compound to that of Bay K 8644)” value was determined as 0%.

Take `COC(=O)C1=C(C)NC(C)=C([N+](=O)[O-])C1c1cccc(OC)c1OCCCCN1CCN(c2ccccc2OC)CC1` (stereo not drawn) [Example 110]: the values for the IC50 at alpha1 -adrenoceptors and at Ca^2 + channels were 160 nM and 1000 nM, respectively. In addition, the EC50 in the experiment with guinea pig left atria is more than 100000 nM. Besides, in the experiment on guinea pig left atria, the “Intrinsic Activity (ratio of the maximum effect of the test compound to that of Bay K 8644)” value was found to be 0%.

Compound `COC(=O)C1=C(C)NC(C)=C([N+](=O)[O-])C1c1cccc(OC)c1OCCCCCN1CCN(c2ccccc2OC)CC1` (stereo not drawn) [Example 111] yielded an IC50 on alpha1 -adrenoceptors of 190 nM. Further, on Ca^2 + channels, the IC50 was determined as 850 nM. Further, in the experiment with guinea pig left atria, the EC50 was more than 100000 nM and the “Intrinsic Activity (ratio of the maximum effect of the test compound to that of Bay K 8644)” value was 0%.

The compound `CCOc1cccc(C2C(C(=O)OC)=C(C)NC(C)=C2[N+](=O)[O-])c1OCCCCCN1CCN(c2ccccc2OC)CC1` (stereo not drawn) [Example 112] came in with an IC50 at alpha1 -adrenoceptors of 180 nM. The IC50 on Ca^2 + channels is 1700 nM. Further, in the experiment with guinea pig left atria, the EC50 was more than 100000 nM and the “Intrinsic Activity (ratio of the maximum effect of the test compound to that of Bay K 8644)” value was 0%.

Take `COC(=O)C1=C(C)NC(C)=C([N+](=O)[O-])C1c1cccc(OCCCCCN2CCN(c3ccccc3OC)CC2)c1` (stereo not drawn) [Example 113]: the IC50 came out at 570 nM on alpha1 -adrenoceptors and 3300 nM at Ca^2 + channels. Besides, in the experiment on guinea pig left atria, the EC50 is more than 100000 nM. The “Intrinsic Activity (ratio of the maximum effect of the test compound to that of Bay K 8644)” value in the experiment with guinea pig left atria is listed as 0%.

On to `COC(=O)C1=C(C)NC(C)=C([N+](=O)[O-])C1c1cccc(OC)c1OC/C=C\CN1CCN(c2ccccc2OC)CC1` (stereo not drawn) [Example 114], for which, on alpha1 -adrenoceptors, the IC50 came to 240 nM. Also, at Ca^2 + channels, the IC50 amounted to 1600 nM. Further, in the experiment with guinea pig left atria, the EC50 was more than 100000 nM and the “Intrinsic Activity (ratio of the maximum effect of the test compound to that of Bay K 8644)” value is reported as 0%.
